We go through 3 molecules from patent US8604243B2, “Fluorescent ion indicators for cadmium and lanthanide ion detection” (Life Technologies Corporation, priority 2005, dated 2013).

Common to all, as to assay type: binding
Assay [1] is described as follows: Fluorescence titration of indicator with calcium ions. The note with it: for Kd: Table 3 binding constant, read-out: Kd Ca^2+; for F = F(bind)/F0, Ca^2+: fluorescent response to binding, in brackets.
A short description of assay [2]: Fluorescence titration of indicator with cadmium ions in cuvettes. The note with it: for F = F(bind)/F0, Cd^2+: fluorescent response to binding, in brackets. The method, then: (§1) A dye stock (5.0×10^−4 M) solution of Compound 109 was prepared in DMSO. Lanthanide, Lead, cadmium and mercury ion solutions from 0-40 nM were prepared in disposable cuvettes by diluting a 100 mM metal ion stock solutions to a final volume of 2 mL with 100 mM MOPS (pH7). For the lanthanide titration, dye stock was diluted to give a final concentration of 50 nM. For the cadmium titration, dye stock was added to give a final concentration of 2.5×10^−7 M. For the mercury titrations, dye stock was added to give a final concentration of 2.5×10^−7 M. Samples were excited at 492 nm and fluorescence was recorded at 517 nm.

Assay [3] in a line: Fluorescence titration of indicator with lead ions. The note with it: for Kd: Table 3 binding constant, read-out: Kd Pb^2+; for F = F(bind)/F0, Pb^2+: fluorescent response to binding, in brackets. As to the method:
as §1

Assay [4] can be described thus: Fluorescence titration of indicator with mercury ions in cuvettes. The method, then: as §1
The nature of assay [5]: Fluorescence titration of indicator with lanthanide ions in cuvettes. To be noted: for F = F(bind)/F0, La^3+: fluorescent response to binding, in brackets. The method, then:
as §1

Assay [6] can be described thus: Fluorescence titration of indicator with zinc ions. To be noted: for Kd: Table 3 binding constant, read-out: Kd Zn^2+; for F = F(bind)/F0, Zn^2+: fluorescent response to binding, in brackets.
Assay [7] in a line: Fluorescence titration of indicator with manganese ions. The note with it: for Kd: Table 3 binding constant, read-out: Kd Mn^2+; for F = F(bind)/F0, Mn^2+: fluorescent response to binding, in brackets.
The mark [8] stands for this setting: Table 3 binding constant, read-out: Kd Cd^2+.
[9] abbreviates: Table 3 binding constant, read-out: Kd La^3+.

By Kd is commonly meant the concentration at which binding is half-saturated.

As for `O=C([O-])CN(CC(=O)[O-])c1ccccc1OCCOCCOc1cc(-c2c3cc(F)c(=O)cc-3oc3cc([O-])c(F)cc23)ccc1N(CC(=O)[O-])CC(=O)[O-].[K+].[K+].[K+].[K+].[K+]` [Compound 109], the Kd in assay [1] was 21.4 µM; in assay [2] (100 mM MOPS pH7, dye 2.5×10^−7 M, excited 492 nm, recorded 517 nm, read-out: Kd cadmium (Cd(II))), 0.061 µM; in assay [2] (setting [8]) it was 0.061 µM; in assay [3] it was 38.9 µM; in assay [4] (100 mM MOPS pH7, dye 2.5×10^−7 M, excited 492 nm, recorded 517 nm, read-out: Kd mercury (Hg2+)), 2.16 µM; in assay [4] (Table 3 binding constant, read-out: Kd Hg^2+), 2.16 µM. Further, the dissociation constant Kd in assay [5] (100 mM MOPS pH7, dye 50 nM, excited 492 nm, recorded 517 nm, read-out: Kd lanthanide (La(III))) worked out at 0.0103 µM; in assay [5] (setting [9]) it was 0.01 µM; in assay [6], 27.1 µM. For the same molecule, the “F = F(bind)/F0, Ca^2+” value in assay [1] was 68. In addition, the “F = F(bind)/F0, Cd^2+” value in assay [2] was 11. In assay [3], the “F = F(bind)/F0, Pb^2+” value turned out to be 20. The “F = F(bind)/F0, Hg^2+” value in assay [4] (fluorescent response to binding, in brackets) turned out to be 20. Besides, in assay [5], the “F = F(bind)/F0, La^3+” value was 47. Besides, the “F = F(bind)/F0, Zn^2+” value in assay [6] was determined as 8.8.

`CN(C)c1ccc2c(-c3ccc(N(CC(=O)[O-])CC(=O)O)c(OCCOCCOc4ccccc4N(CC(=O)O)CC(=O)O)c3)c3ccc(=[N+](C)C)cc-3oc2c1` [Compound 112]: the equilibrium dissociation constant (Kd) came to 44.9 µM in assay [1]; 0.395 µM in assay [2] (setting [8]); 5.44 µM in assay [3]; 80.2 µM in assay [7]; 0.359 µM in assay [5] (setting [9]); 35.8 µM in assay [6]. In addition, in assay [1], the “F = F(bind)/F0, Ca^2+” value came to 161. The “F = F(bind)/F0, Cd^2+” value in assay [2] stood at 39. In assay [3], the “F = F(bind)/F0, Pb^2+” value was 29. Besides, the “F = F(bind)/F0, Mn^2+” value in assay [7] amounted to 1.82. For the same molecule, the “F = F(bind)/F0, La^3+” value in assay [5] amounted to 36. Further, in assay [6], the “F = F(bind)/F0, Zn^2+” value came to 17.

Turning to `O=C([O-])CN(CC(=O)O)c1ccc(C2=c3cc4c5c(c3Oc3c2cc2c6c3CCCN6CCC2)CCC[N+]=5CCC4)cc1OCCOCCOc1ccccc1N(CC(=O)O)CC(=O)O` [Compound 115], the equilibrium dissociation constant (Kd) in assay [1] worked out at 67.8 µM; in assay [2] (setting [8]), 0.331 µM; in assay [3], 0.189 µM; in assay [7] it was 136 µM; in assay [5] (setting [9]), 0.352 µM; in assay [6], 28.6 µM. In assay [1], the “F = F(bind)/F0, Ca^2+” value amounted to 114. In addition, in assay [3], the “F = F(bind)/F0, Pb^2+” value stood at 33. The “F = F(bind)/F0, Mn^2+” value in assay [7] worked out at 2.5. For the same molecule, the “F = F(bind)/F0, La^3+” value in assay [5] is listed as 32. Also, the “F = F(bind)/F0, Zn^2+” value in assay [6] amounted to 20.
